Holding throughout (format): cell-based
Assay [1] deals with T1, GABA-A receptor; alpha-3/beta-3/gamma-2 (Homo sapiens, UniProt P18507+P28472+P34903).
T1 sequence (P18507 whole entry): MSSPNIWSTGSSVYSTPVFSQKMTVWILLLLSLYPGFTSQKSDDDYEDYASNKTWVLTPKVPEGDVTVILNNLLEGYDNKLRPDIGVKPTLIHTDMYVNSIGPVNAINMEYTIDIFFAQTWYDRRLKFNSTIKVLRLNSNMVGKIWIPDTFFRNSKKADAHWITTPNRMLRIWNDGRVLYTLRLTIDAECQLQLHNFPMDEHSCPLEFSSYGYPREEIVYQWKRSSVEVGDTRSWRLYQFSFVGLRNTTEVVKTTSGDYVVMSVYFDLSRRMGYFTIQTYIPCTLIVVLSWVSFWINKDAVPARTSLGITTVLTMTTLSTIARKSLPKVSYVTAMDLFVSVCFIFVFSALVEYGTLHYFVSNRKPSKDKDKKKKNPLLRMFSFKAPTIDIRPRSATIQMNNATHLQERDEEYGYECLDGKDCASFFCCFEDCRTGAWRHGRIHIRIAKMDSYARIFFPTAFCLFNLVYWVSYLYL
T1 sequence (P28472 whole entry): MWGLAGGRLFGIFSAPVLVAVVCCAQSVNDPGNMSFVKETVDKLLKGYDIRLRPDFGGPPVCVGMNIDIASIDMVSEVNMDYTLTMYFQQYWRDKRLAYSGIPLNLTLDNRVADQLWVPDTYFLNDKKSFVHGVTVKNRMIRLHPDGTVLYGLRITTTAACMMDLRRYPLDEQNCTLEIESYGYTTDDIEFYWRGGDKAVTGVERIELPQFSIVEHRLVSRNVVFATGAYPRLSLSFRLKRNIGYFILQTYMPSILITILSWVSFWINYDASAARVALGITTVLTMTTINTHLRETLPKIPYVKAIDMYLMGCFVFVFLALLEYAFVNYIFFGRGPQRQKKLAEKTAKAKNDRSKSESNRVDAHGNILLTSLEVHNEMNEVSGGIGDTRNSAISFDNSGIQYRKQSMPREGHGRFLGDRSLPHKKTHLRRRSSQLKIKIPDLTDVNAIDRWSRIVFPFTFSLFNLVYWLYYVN
T1 sequence (P34903 whole entry): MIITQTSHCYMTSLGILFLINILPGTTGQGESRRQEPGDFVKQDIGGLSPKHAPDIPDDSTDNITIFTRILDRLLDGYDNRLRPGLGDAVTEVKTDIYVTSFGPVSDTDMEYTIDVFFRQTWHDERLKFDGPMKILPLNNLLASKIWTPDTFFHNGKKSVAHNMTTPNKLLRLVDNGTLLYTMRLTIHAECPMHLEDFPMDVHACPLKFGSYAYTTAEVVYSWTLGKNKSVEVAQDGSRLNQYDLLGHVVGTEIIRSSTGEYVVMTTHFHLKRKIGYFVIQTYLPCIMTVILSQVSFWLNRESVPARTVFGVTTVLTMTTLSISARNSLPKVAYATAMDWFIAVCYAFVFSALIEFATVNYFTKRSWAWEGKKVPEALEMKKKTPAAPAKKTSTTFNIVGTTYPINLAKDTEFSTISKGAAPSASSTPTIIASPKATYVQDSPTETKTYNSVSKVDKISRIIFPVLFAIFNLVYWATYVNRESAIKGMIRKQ
In words: Inhibition of [3H]Ro-151788 binding to recombinant human gamma-aminobutyric-acid A receptor alpha-3-beta-3-gamma-2 subtype expressed in L (tk-) cells.

Assay [2] deals with T2, GABA-A receptor; alpha-2/beta-3/gamma-2 (Homo sapiens, UniProt P18507+P28472+P47869).
T2 sequence (P18507 whole entry): T1 sequence (P18507 whole entry)
T2 sequence (P28472 whole entry): T1 sequence (P28472 whole entry)
T2 sequence (P47869 whole entry): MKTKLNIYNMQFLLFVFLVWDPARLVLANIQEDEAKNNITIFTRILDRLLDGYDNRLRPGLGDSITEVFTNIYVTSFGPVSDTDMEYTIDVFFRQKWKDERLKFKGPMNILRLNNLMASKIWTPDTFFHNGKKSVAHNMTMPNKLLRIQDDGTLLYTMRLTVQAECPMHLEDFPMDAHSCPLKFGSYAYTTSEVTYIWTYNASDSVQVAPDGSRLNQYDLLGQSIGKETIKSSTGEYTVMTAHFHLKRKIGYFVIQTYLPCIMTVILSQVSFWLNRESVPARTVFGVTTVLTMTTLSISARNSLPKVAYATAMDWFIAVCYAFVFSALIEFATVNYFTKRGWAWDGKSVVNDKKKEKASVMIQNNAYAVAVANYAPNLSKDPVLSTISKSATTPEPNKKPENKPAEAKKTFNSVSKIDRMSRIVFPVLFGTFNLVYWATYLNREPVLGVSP
In words: Inhibition of [3H]Ro-151788 binding to recombinant human gamma-aminobutyric acid A receptor alpha-2-beta-3-gamma-2 subtype expressed in L (tk-) cells.

In assay [3] the target is T3, GABA-A receptor; alpha-1/beta-3/gamma-2 (Homo sapiens, UniProt P14867+P18507+P28472).
T3 sequence (P14867 whole entry): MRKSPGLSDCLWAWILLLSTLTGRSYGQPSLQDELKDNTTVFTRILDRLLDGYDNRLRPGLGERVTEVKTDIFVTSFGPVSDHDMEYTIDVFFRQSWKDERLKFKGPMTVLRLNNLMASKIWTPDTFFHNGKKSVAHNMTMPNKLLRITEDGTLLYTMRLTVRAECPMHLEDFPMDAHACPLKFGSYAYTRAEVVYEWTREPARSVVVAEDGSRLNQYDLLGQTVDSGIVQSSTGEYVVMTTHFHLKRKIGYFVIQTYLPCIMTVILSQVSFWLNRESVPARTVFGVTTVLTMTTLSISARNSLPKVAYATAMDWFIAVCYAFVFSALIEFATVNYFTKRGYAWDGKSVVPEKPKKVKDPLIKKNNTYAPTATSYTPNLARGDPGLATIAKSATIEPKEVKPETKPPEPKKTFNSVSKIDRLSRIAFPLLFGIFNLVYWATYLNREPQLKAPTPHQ
T3 sequence (P18507 whole entry): T1 sequence (P18507 whole entry)
T3 sequence (P28472 whole entry): T1 sequence (P28472 whole entry)
In words: Inhibition of [3H]Ro-151788 binding to recombinant human gamma-aminobutyric-acid A receptor alpha-1-beta-3-gamma-2 subtype expressed in L (tk-) cells.

In assay [4] the target is T4, GABA-A receptor; alpha-5/beta-3/gamma-2 (Homo sapiens, UniProt P18507+P28472+P31644).
T4 sequence (P18507 whole entry): T1 sequence (P18507 whole entry)
T4 sequence (P28472 whole entry): T1 sequence (P28472 whole entry)
T4 sequence (P31644 whole entry): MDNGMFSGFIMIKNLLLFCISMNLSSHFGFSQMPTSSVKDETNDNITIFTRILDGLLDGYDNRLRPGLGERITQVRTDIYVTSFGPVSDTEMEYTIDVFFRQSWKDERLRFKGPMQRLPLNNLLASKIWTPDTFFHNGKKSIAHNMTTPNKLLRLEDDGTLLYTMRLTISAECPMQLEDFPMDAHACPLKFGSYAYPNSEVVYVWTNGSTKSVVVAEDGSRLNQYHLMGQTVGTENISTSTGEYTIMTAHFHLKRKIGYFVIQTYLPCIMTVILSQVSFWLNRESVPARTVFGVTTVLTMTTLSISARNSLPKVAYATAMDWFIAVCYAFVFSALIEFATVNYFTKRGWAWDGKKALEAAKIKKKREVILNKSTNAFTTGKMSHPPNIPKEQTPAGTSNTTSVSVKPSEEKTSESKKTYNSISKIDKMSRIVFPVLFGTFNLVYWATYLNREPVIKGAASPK
Description: Inhibition of [3H]Ro-151788 binding to recombinant human gamma-aminobutyric-acid A receptor alpha-5-beta-3-gamma-2 subtype expressed in L (tk-) cells.

The term Ki denotes a measure of affinity in units of concentration, obtained from inhibition or displacement.

The structures appear in SMILES notation.

Regarding `Cc1cc(COc2nn3c(-c4ccccc4)nnc3c3c2C2CCC3CC2)sn1`, the Ki amounted to 99 nM in assay [1], 130 nM in assay [2], 210 nM in assay [3] and 11 nM in assay [4].
For the compound `Cc1noc(COc2nn3c(-c4ccccc4)nnc3c3c2C2CCC3CC2)n1`, the Ki amounted to 51 nM in assay [1], 250 nM in assay [2], 290 nM in assay [3] and 12 nM in assay [4].
For `Cc1nnc2ccc(-c3cccc(C(F)(F)F)c3)nn12` [CI-218872], the Ki was found to be 850 nM in assay [1], 720 nM in assay [2], 66 nM in assay [3] and 460 nM in assay [4].
Regarding `c1ccc(COc2nn3c(-c4ccsc4)nnc3c3c2C2CCC3CC2)nc1`, the Ki came to 38 nM in assay [1], 52 nM in assay [2], 130 nM in assay [3] and 4.4 nM in assay [4].
For `Cc1cccc(COc2nn3c(-c4ccccc4)nnc3c3c2C2CCC3CC2)n1`, the Ki is 20 nM in assay [1], 36 nM in assay [2], 160 nM in assay [3] and 2.6 nM in assay [4].
On the same counts, the results for `OCc1ccc(COc2nn3c(-c4ccccc4)nnc3c3c2C2CCC3CC2)cc1` are 44 nM, 76 nM, 520 nM and 11 nM.
On to `c1ccc(-c2nnc3c4c(c(OCCc5ccccn5)nn23)C2CCC4CC2)cc1`, for which the Ki in assay [1] is 200 nM; in assay [2], 270 nM; in assay [3], 480 nM; in assay [4], 44 nM.
For `c1ccc(-c2nnc3c4c(c(Oc5cccnc5)nn23)C2CCC4CC2)cc1` the same measures were more than 500 nM, more than 500 nM, more than 500 nM and more than 500 nM.
Regarding `c1ccc(-c2nnc3c4c(c(OCc5ccc6c(c5)OCO6)nn23)C2CCC4CC2)cc1`, the inhibitory constant (Ki) in assay [1], in assay [2], in assay [3] and in assay [4] was more than 500 nM throughout.
Regarding `c1ccc(-c2nnc3c4c(c(OCc5cnc6ccccc6n5)nn23)C2CCC4CC2)cc1`, the Ki in assay [1] came to 26 nM; in assay [2], 34 nM; in assay [3] it was 82 nM; in assay [4] it was 3.9 nM.
`c1ccc(COc2nn3c(-c4ccncc4)nnc3c3c2C2CCC3CC2)nc1`: the Ki is 150 nM in assay [1], 320 nM in assay [2], more than 1000 nM in assay [3] and 20 nM in assay [4].
On the same counts, the results for `Cc1scnc1COc1nn2c(-c3ccccc3)nnc2c2c1C1CCC2CC1` are 12 nM, 21 nM, 35 nM and 0.77 nM.
For `c1ccc(-c2nnc3c4c(c(OCc5ccco5)nn23)C2CCC4CC2)cc1`, the Ki in assay [1], in assay [2], in assay [3] and in assay [4] was more than 500 nM in each case.
Regarding `c1ccc(COc2nn3c(-c4ccco4)nnc3c3c2C2CCC3CC2)nc1`, the Ki in assay [1] was found to be 53 nM; in assay [2], 110 nM; in assay [3] it was 270 nM; in assay [4] it was 5.3 nM.
Take `c1ccc(COc2nn3c(-c4ccccc4)nnc3c3c2C2CCC3CC2)cc1`: the Ki in assay [1] was more than 1000 nM; in assay [2] it was more than 1000 nM; in assay [3], more than 1000 nM; in assay [4], 110 nM.
Take `OCc1cccc(COc2nn3c(-c4ccccc4)nnc3c3c2C2CCC3CC2)c1`: the Ki in assay [1] came to 43 nM; in assay [2], 110 nM; in assay [3], 490 nM; in assay [4] it was 11 nM.
For `FC(F)(F)Oc1ccc(COc2nn3c(-c4ccccc4)nnc3c3c2C2CCC3CC2)cc1`, the Ki in assay [1], in assay [2], in assay [3] and in assay [4] was more than 500 nM throughout.
In the case of `Clc1ccc(COc2nn3c(-c4ccccc4)nnc3c3c2C2CCC3CC2)nn1`, the Ki in assay [1] stood at 23 nM; in assay [2], 42 nM; in assay [3], 73 nM; in assay [4], 1.3 nM.
For `c1ccc(-c2nnc3c4c(c(CNc5ccccn5)nn23)C2CCC4CC2)cc1` the same measures were more than 1000 nM, more than 1000 nM, more than 1000 nM and more than 1000 nM.
For `c1ccc(-c2nnc3c4c(c(OCc5cccs5)nn23)C2CCC4CC2)cc1` the same measures were more than 500 nM, more than 500 nM, more than 500 nM and more than 500 nM.
Take `CN(C(=O)COc1nn2c(-c3ccccc3)nnc2c2c1C1CCC2CC1)c1ccccc1`: the Ki in assay [1] is 41 nM; in assay [2] it was 72 nM; in assay [3], 21 nM; in assay [4] it was 7.4 nM.
Take `COc1ccccc1-c1nnc2c3c(c(OCc4ccccn4)nn12)C1CCC3CC1`: the inhibitory constant (Ki) is more than 1000 nM in assay [1], more than 1000 nM in assay [2], more than 1000 nM in assay [3] and 170 nM in assay [4].
As for `c1ccc(-c2nnc3c4c(c(OCc5nc6ccccc6s5)nn23)C2CCC4CC2)cc1`, the Ki was 250 nM in assay [1], more than 1000 nM in assay [2], more than 1000 nM in assay [3] and 23 nM in assay [4].
For the compound `OCCCOc1nn2c(-c3ccccc3)nnc2c2c1C1CCC2CC1`, the Ki stood at 170 nM in assay [1], 310 nM in assay [2], 650 nM in assay [3] and 42 nM in assay [4].

The values above are taken from ChEMBL document CHEMBL1142695, “Discovery of functionally selective 7,8,9,10-tetrahydro-7,10-ethano-1,2,4-triazolo[3,4-a]phthalazines as GABA A receptor agonists at the alpha3 subunit” (J Med Chem, 2005).
